Each structure is given as a SMILES string.

Results on 7 compounds are retold here after patent US5883287A, “Vinyl sulfide compounds and a process for their preparation” (Lumigen, Inc., priority 1997, dated 1999).

Format in all cases: physicochemical
The nature of series [1]: First order decay of chemiluminescence (base-induced decay) of hydroxyphenyl alkoxy or aryloxy dioxetanes in alkaline buffer. Particulars: 37° C.; 0.2M 221 buffer, pH 9.6, 0.88 mM Mg+2, 1.0 mg/mL 1-trioctylphosphoniummethyl-4-tributylphosphoniummethylbenzene dichloride. The method, then: Comparison of Rates of Base-Induced Decay of Hydroxy-phenyl Alkoxy or Aryloxy Dioxetanes. The first order decay of chemiluminescence of dioxetanes 14-19 in 0.2M 2-methyl-2-amino-1-propanol (221) buffer, pH 9.6 containing 0.88 mM Mg^+2 and 1.0 mg/mL of 1-trioctylphosphoniummethyl-4-tributylphosphoniummethylbenzene dichloride was measured at 37° C. in a Turner Designs (Sunnyvale, Calif.) model TD-20e luminometer. The half-lives of decay of chemiluminescence (t1/2) of hydroxy-dioxetanes correlate with the times required to reach the maximum light intensity (Imax) in the alkaline phosphatase-triggered decomposition of the corresponding phosphate-dioxetanes under the same conditions. […] It is expected that, for example, the phosphate derivatives of dioxetanes 14-19 as well as others which can be produced by the process described herein will be useful in alkaline phosphatase-linkedassays known in the art.

Series [2] can be described thus: First order decay of chemiluminescence (base-induced decay) of hydroxyphenyl alkylthio dioxetane in alkaline buffer with surfactant enhancers. As to conditions: 0.2M 221 buffer pH 9.6, 0.88 mM Mg+2, ambient temperature. The method, then: Comparison of Rates of Base-Induced Decay of a Hydroxyphenyl Alkylthio Dioxetane. The first order decay of chemiluminescence of dioxetane 3 in 0.2M 221 buffer, pH 9.6 containing 0.88 mM Mg^+2 and the surfactant enhancers shown below was measured at ambient temperature. Surfactant A is CTAB, B is poly(vinylbenzyltributylphosphonium chloride), C is poly(vinylbenzyltributylphosphonium chloride)-co-poly(vinylbenzyltrioctylphosphonium chloride), D is 1-trioctylphosphoniummethyl-4-tributylphosphoniummethylbenzene dichloride.

The nature of series [3]: Stability of dioxetane on silica (TLC versus NMR). Particulars: TLC on silica compared with 1H NMR. As to the method:
(c) Synthesis of 4-ethylthio-4-(3-pivaloyloxyphenyl)spiro[1,2-dioxetane-3,2'-tricyclo[3.3.1.1^3,7 ]decane] (2). A small photooxygenation apparatus was charged with 60 mg (0.16 mmol) of the vinyl sulfide, 180 mg of polymer-bound Rose Bengal (U.S. Pat. No. 4,315,998), and 20 mL of CH2 Cl2 dried over MgSO4. The resulting mixture was then cooled to -78° C. with oxygen bubbling through it. After several minutes, the reaction solution was irradiated with a 1000 W sodium lamp for 25 min. […] The sensitizer was filtered off, the solvent evaporated at 0° C. and the material examined by ^1 H NMR.

Take `Oc1cccc(C2(OCC(F)(F)C(F)(F)F)OOC23C2CC4CC(C2)CC3C4)c1` (stereo not shown) [Dioxetane 17, 4-(3-Hydroxyphenyl)-4-(2,2,3,3,3-pentafluoropropoxy)spiro[1,2-dioxetane-3,2'-tricyclo[3.3.1.1^3,7]decane]]: the “t1/2 of decay of chemiluminescence” value in series [1] was determined as 3.4 min.

For the compound `Oc1cccc(C2(Sc3ccc(F)cc3)OOC23C2CC4CC(C2)CC3C4)c1` (stereo not shown) [Dioxetane 3, 4-(p-Fluorophenylthio)-4-(3-hydroxyphenyl)spiro[1,2-dioxetane-3,2'-tricyclo[3.3.1.1^3,7]decane]], the “t1/2 of decay of chemiluminescence” value in series [2] (Surfactant A (CTAB) 0.41 g/L) stood at 11.2 min; in series [2] (Surfactant B (poly(vinylbenzyltributylphosphonium chloride)) 0.5 g/L) it was 4.2 min; in series [2] (Surfactant C (poly(vinylbenzyltributylphosphonium chloride)-co-poly(vinylbenzyltrioctylphosphonium chloride)) 0.5 g/L), 2.9 min; in series [2] (Surfactant D (1-trioctylphosphoniummethyl-4-tributylphosphoniummethylbenzene dichloride) 1.0 g/L) it was 2.0 min.

On to `Oc1cccc(C2(Oc3c(F)cccc3F)OOC23C2CC4CC(C2)CC3C4)c1` (stereo not shown) [Dioxetane 19, 4-(2',6'-Difluorophenoxy)-4-(3-hydroxyphenyl)spiro[1,2-dioxetane-3,2'-tricyclo[3.3.1.1^3,7]decane]], for which, in series [1], the “t1/2 of decay of chemiluminescence” value turned out to be 1.76 min.

In the case of `Oc1cccc(C2(OCC(Cl)Cl)OOC23C2CC4CC(C2)CC3C4)c1` (stereo not shown) [Dioxetane 16, 4-(2,2-Dichloroethoxy)-4-(3-hydroxyphenyl)spiro[1,2-dioxetane-3,2'-tricyclo-[3.3.1.1^3,7]decane]], the “t1/2 of decay of chemiluminescence” value in series [1] is recorded as 4.1 min.

In the case of `CCSC1(c2cccc(OC(=O)C(C)(C)C)c2)OOC12C1CC3CC(C1)CC2C3` (stereo not shown) [Dioxetane 2, 4-Ethylthio-4-(3-pivaloyloxyphenyl)spiro[1,2-dioxetane-3,2'-tricyclo-[3.3.1.1^3,7]decane]], in series [3], the stability on silica result is given as “less stable on silica”.

As for `Oc1cccc(C2(OCC(Cl)(Cl)Cl)OOC23C2CC4CC(C2)CC3C4)c1` (stereo not shown) [Dioxetane 15, 4-(3-Hydroxyphenyl)-4-(2,2,2-trichloroethoxy)spiro[1,2-dibxetane-3,2'-tricyclo[3.3.1.1^3,7]decane]], in series [1], the “t1/2 of decay of chemiluminescence” value is recorded as 3.7 min.

With `Oc1cccc(C2(OCC(F)(F)C(F)(F)C(F)(F)F)OOC23C2CC4CC(C2)CC3C4)c1` (stereo not shown) [Dioxetane 18, 4-(2,2,3,3,4,4,4-Heptafluorobutoxy)-4-(3-hydroxyphenyl)spiro[1,2-dioxetane-3,2'-tricyclo[3.3.1.1^3,7]decane]], in series [1], the “t1/2 of decay of chemiluminescence” value worked out at 4.9 min.
